Source: patent publication US6451339B2, “Compositions and methods for improved delivery of hydrophobic agents” (Lipocine, Inc., priority 1999, dated 2002)
Each block holds one compound with its values, some of them ahead of it.

What was measured:
[1] = value reported by the manufacturer of the commercial product, a rough average, or inventors' judgment; cited from earlier work
[2] = Surfactant combinations giving clear aqueous dispersions (maximum hydrophobic surfactant, visual optical clarity); details: for approximate maximum grams of hydrophobic surfactant per 100 g of hydrophilic surfactant giving acceptable optical clarity: 10× aqueous dispersion, no solubilizer
[3] = hydrophilic surfactant Cremophor RH40 + 20% Ethanol
[4] = hydrophilic surfactant Cremophor RH40 + 20% Glycofurol
[5] = hydrophilic surfactant Cremophor RH40 + 20% Triacetin
[6] = hydrophilic surfactant Cremophor RH40, solubilizer (None), reproduced from Table 19
[7] = hydrophilic surfactant PEG-8 Capric/Caprylic (Labrasol)
[8] = hydrophilic surfactant PEG-25 Glyceryl trioleate (Tagat TO)
[9] = hydrophilic surfactant PEG-35 Castor Oil (Incrocas 35)
[10] = hydrophilic surfactant PEG-40H Castor Oil (Cremophor RH-40)
[11] = hydrophilic surfactant PEG-60 Corn Oil (Crovol M-70)
[12] = hydrophilic surfactant Polysorbate 80 (Tween 80)
[13] = hydrophilic surfactant Polysorbate-20 (Tween 20)

Compound: CCCCCCCC/C=C\CCCCCCCC(=O)OCC [Ethyl oleate]
- HLB [1]: <10
- effect of added solubilizer on the relative amount of hydrophobic surfactant that can be used ([2]; Cremophor RH 40 hydrophilic surfactant, 20% solubilizer): negligible
- approximate maximum grams of hydrophobic surfactant per 100 g of hydrophilic surfactant giving a clear aqueous dispersion [2, 3]: 60 g per 100 g of hydrophilic sur
- approximate maximum grams of hydrophobic surfactant per 100 g of hydrophilic surfactant giving a clear aqueous dispersion [2, 4]: 60 g per 100 g of hydrophilic sur
- approximate maximum grams of hydrophobic surfactant per 100 g of hydrophilic surfactant giving a clear aqueous dispersion [2, 5]: 60 g per 100 g of hydrophilic sur
- approximate maximum grams of hydrophobic surfactant per 100 g of hydrophilic surfactant giving a clear aqueous dispersion [2, 6]: 60 g per 100 g of hydrophilic sur
- approximate maximum grams of hydrophobic surfactant per 100 g of hydrophilic surfactant giving acceptable optical clarity [2, 7]: 10 g per 100 g of hydrophilic sur
- approximate maximum grams of hydrophobic surfactant per 100 g of hydrophilic surfactant giving acceptable optical clarity [2, 8]: 10 g per 100 g of hydrophilic sur
- approximate maximum grams of hydrophobic surfactant per 100 g of hydrophilic surfactant giving acceptable optical clarity [2, 9]: 40 g per 100 g of hydrophilic sur
- approximate maximum grams of hydrophobic surfactant per 100 g of hydrophilic surfactant giving acceptable optical clarity [2, 10]: 60 g per 100 g of hydrophilic sur
- approximate maximum grams of hydrophobic surfactant per 100 g of hydrophilic surfactant giving acceptable optical clarity [2, 11]: 60 g per 100 g of hydrophilic sur
- approximate maximum grams of hydrophobic surfactant per 100 g of hydrophilic surfactant giving acceptable optical clarity [2, 12]: 10 g per 100 g of hydrophilic sur
- approximate maximum grams of hydrophobic surfactant per 100 g of hydrophilic surfactant giving acceptable optical clarity [2, 13]: 10 g per 100 g of hydrophilic sur

Compound: CCCCCCCC(=O)OCC(C)OC(=O)CCCCCCC (centres unmarked) [Propylene glycol dicaprylate]
- HLB [1]: >6

Compound: CCCCCCCCCCCC(=O)OCC(C)OC(=O)CCCCCCCCCCC (centres unmarked) [Propylene glycol dilaurate]
- HLB [1]: >6

Compound: CCCCCCCC(=O)OCC(C)OC(=O)CCCCCCC (centres unmarked) [Propylene glycol dioctanoate]
- HLB [1]: <6

Compound: CCCCCCCCCCCCCCCCCC(=O)OCC(C)OC(=O)CCCCCCCCCCCCCCCCC (centres unmarked) [Propylene glycol distearate]
- HLB [1]: >6

Compound: CCCCCCCCCCCCOS(=O)(=O)[O-].[Na+] [Sodium lauryl sulfate, Sodium lauryl sulfate (dodecyl)]
- HLB [1]: 40

Compound: CCCCCCCC/C=C\CCCCCCCC(=O)[O-].[Na+] [Sodium oleate]
- HLB [1]: 18

Compound: CC[C@H](CC[C@@H](C)[C@H]1CC[C@H]2[C@@H]3CC=C4C[C@@H](O)CC[C@]4(C)[C@H]3CC[C@]12C)C(C)C [sitosterol]
- HLB [1]: <10

Compound: PEG 400-100O monostearate
- HLB [1]: >10

Compound: PEG-5 soya sterol
- HLB [1]: <10

Compound: PEG-10 soya sterol
- HLB [1]: <10

Compound: PEG-20 soya sterol
- HLB [1]: <10

Compound: PEG-24 cholesterol ether
- HLB [1]: >10

Compound: PEG-25 phyto sterol
- HLB [1]: >10

Compound: PEG-30 cholestanol
- HLB [1]: >10

Compound: PEG-30 soya sterol
- HLB [1]: >10

Compound: Phytosterol
- HLB [1]: <10

Compound: Polyglyceryl polyricinoleate
- HLB [1]: 3-20

Compound: Propylene glycol dicaprylate/dicaprate
- HLB [1]: <6

- approximate maximum grams of hydrophobic surfactant per 100 g of hydrophilic surfactant giving a clear aqueous dispersion [2, 3]: 80 g per 100 g of hydrophilic sur
- approximate maximum grams of hydrophobic surfactant per 100 g of hydrophilic surfactant giving a clear aqueous dispersion [2, 4]: 80 g per 100 g of hydrophilic sur
- approximate maximum grams of hydrophobic surfactant per 100 g of hydrophilic surfactant giving a clear aqueous dispersion ([2]; hydrophilic surfactant Cremophor RH40 + 20% PEG-400): 80 g per 100 g of hydrophilic sur
- approximate maximum grams of hydrophobic surfactant per 100 g of hydrophilic surfactant giving a clear aqueous dispersion [2, 5]: 80 g per 100 g of hydrophilic sur
- approximate maximum grams of hydrophobic surfactant per 100 g of hydrophilic surfactant giving a clear aqueous dispersion [2, 6]: 80 g per 100 g of hydrophilic sur
- approximate maximum grams of hydrophobic surfactant per 100 g of hydrophilic surfactant giving acceptable optical clarity [2, 7]: 10 g per 100 g of hydrophilic sur
- approximate maximum grams of hydrophobic surfactant per 100 g of hydrophilic surfactant giving acceptable optical clarity [2, 8]: 10 g per 100 g of hydrophilic sur
- approximate maximum grams of hydrophobic surfactant per 100 g of hydrophilic surfactant giving acceptable optical clarity [2, 9]: 80 g per 100 g of hydrophilic sur
- approximate maximum grams of hydrophobic surfactant per 100 g of hydrophilic surfactant giving acceptable optical clarity [2, 10]: 80 g per 100 g of hydrophilic sur
- approximate maximum grams of hydrophobic surfactant per 100 g of hydrophilic surfactant giving acceptable optical clarity [2, 11]: 10 g per 100 g of hydrophilic sur
- approximate maximum grams of hydrophobic surfactant per 100 g of hydrophilic surfactant giving acceptable optical clarity [2, 12]: 15 g per 100 g of hydrophilic sur
- approximate maximum grams of hydrophobic surfactant per 100 g of hydrophilic surfactant giving acceptable optical clarity [2, 13]: 20 g per 100 g of hydrophilic sur
Compound: mono- and diacetylated monoglycerides [Mono- and monoglycerides]
- HLB [1]: 3.8-4
